Assay results published in patent US20120004157A1, “HYDROXYPROLINE COMPOSITIONS AND USES THEREOF” (Bergen Teknologioverforing AS, priority 2007, published 2012).
“Also recorded” adds a separate entry of the source.

Key:
psoriasis = conditions: Phase III psoriasis study, topical formulation; not statistically significant; cited from earlier work
[1] = tested on: Atlantic salmon (Salmo salar); test: 88 days growth experiment, growth and feed performance; assay type: in vivo; conditions: 88 days feeding
Excerpt: The diets used were composed such that they are equal in protein, lipid and energy, and designed to vary only in level of Hydroxyproline. The small amounts of Hydroxyproline added (L-4-Hydroksyproline, >99.0% pure, Fluka BioChemika. Sigma-Aldrich Chemie GmbH) were exchanged with fish meal, and the diets were otherwise adjusted with the content of raw wheat to secure equal chemical composition. Five different levels of Hydroxyproline were used in a regression design with two replicates for each level, except the diet without Hydroxyproline addition that was run in triplicate tanks. The levels used of hydroxyproline were 0, 0.7 gkg^−1, 1.4 gkg^−1, 2.8 gkg^−1 and 5.6 gkg^−1. As a negative control, Proline (L-Proline, (Hydroxy-L-Proline Free) Sigma grade, Sigma Chemical Company) was added to a level of 2.8 gkg^−1.
Atlantic salmon (Salmo salar) was obtained from Salmobreed May 2006. The fish was prevaccinated with Trippel Forte and was acclimated for 56 days before the trial started. The fish was given EWOS Opal Boost 50 3A, 3 mm pellets during this period. The fish was randomly distributed among 14 fiberglass tanks (1.5×1.5×1 m^3) with 80 fish per tank. Diet 1 and Diet 6 were run in triplicate tanks. Diet 2, Diet 3, Diet 4 and Diet 5 was run in duplicate tanks. Data are given also for a fish meal diet with no plant protein included. This diet was run simultaneously with fish of the same size, origin and treatment. This diet (Diet 7) was run in 2 m×2 m×1 m tanks in triplicate in a parallel experiment. The tanks were supplied with 75 I min^−1 of seawater taken from a depth of 50 m with average salinity of 3.2-3.3%. Water temperature was kept constant at 10.4±0.4° C. during the acclimatization and the experimental period, using a heat exchanger to adjust the sea water temperature. Throughout the experimental period of 88 days, the fish were exposed to 24 h artificial light. Great care was taken to reduce disturbance from the environment. Automatic feeders were used to add feed from 05.00 to 08.00 hrs and from 14.00 to 03.00 hrs. The level of feeding was regulated in such a way that offered feed was 110% of expected consumption based on daily monitoring of wasted feed. Uneaten feed was continuously removed by automatic collection and separated from feces using an Excess Fishfeed Collector (Holland Teknologi, Norway). Feed intake was measured daily as the difference between total feed given and total uneaten feed collected. Feed intake for the total experimental period was measured as the sum of the daily feed intakes, divided by feeding days and average fish weight during the experimental period; (start weight+final weight)/2. Feeding was sustained until the fish was sampled for analyses.
The six experimental diets were randomly assigned to the 14 tanks, with 3 replicate tanks for Diet 1 and Diet 6 and to duplicate tanks for the other experimental diets. Initial fish weights and lengths were recorded. Twenty fish representing the weight ranges were sampled, killed by a blow on the head, frozen and kept at −80° C. pending analyses of fish at start. Final weights were determined for each fish in all tanks. At the end of the feeding period, the fish were anaesthetized with Eugonol (iso-eugunol was diluted 1:1 with ethanol and the diluted solution was added 15 ml per m^3 water in the tanks). After about 15 min, 10 fish from each tank were sampled, killed by a blow in the head, gutted and weight of slaughtered fish, liver and viscera were noted. Five other fish from each tank were pooled and frozen for pending analyses.
The 88 days growth experiment was run successfully with a thermal growth coefficient (TGC) of 2.5 for the fish meal control diet. Some loss of fish occurred during the experimental period and some fish seemed not to develop normally. […]

[2] = tested on: Atlantic salmon (Salmo salar); test: Subjective scoring of wounds on skin, damage on dorsal fin and loss of shells; assay type: in vivo; conditions: scale from 0 (no damage) to 5 (severe damages), 88 days feeding, Diets 2-5 = 0.7, 1.4, 2.8, 5.6 gkg−1 added hydroxyproline, mean ± SD
Experimental: Wounds on skin, damages on dorsal fin and loss of shells were evaluated in the 10 salmons from each tank. The measure was subjectively based on a scale from 0 (no damage) to 5 (severe damages). The data and statistics are included in the table below (based on 110 measures) and shown in the figure based on average values for each tank). The statistics given are based on linear regression. […] (Table 3 and FIGS. 5, 6 and 7)

[3] = Retention of dietary hydroxyproline in fish; assay type: in vivo; conditions: FIG. 1
Experimental: (§1) Trout were fed fish hydrolysate and fractions thereof to identify bioactive compounds (see Table 2).
The experiments where fish were fed a diet including varying levels of hydroxyproline were performed as described above.
The retention of hydroxyproline is statistically correlated to the dietary level. Low dietary levels (0.8 g per kg diet) give retention of close to 100% while higher dietary levels (>4.5 g per kg diet) gives retention of 20-30%.

[4] = Blood plasma levels of hydroxyproline in trout fed 90 days; assay type: in vivo; conditions: for blood plasma levels of Hydroxyproline: trout fed for 90 days, FIG. 2
Experimental: as §1
The y axis is plasma levels in micromoles per 100 ml and the x-axis is the dietary level of component in g per kg diet.

[5] = added hydroxyproline gkg−1: Diet 2 0.7, Diet 3 1.4, Diet 4 2.8, Diet 5 5.6, mean ± SD
[6] = at 2.9 gkg−1 added Hydroxyproline

Row | Compound | greater improvement in mean lesion scores in the treated group compared to placebos (psoriasis) [%] | nutritional requirement indicated by the growth curve [1] | Body weight at end, g [1, 5] | Weight gain, g/fish [1, 5] | increase of weight gain compared with no Hydroxyproline added (Diet 1) [1, 6] [%] | weight gain at the maximum of the regression equation [1, 6] [g] | added Hydroxyproline at maximum of the weight gain regression equation ([1]; polynomial regression, n=11) [gkg−1] | SGR ([1]; specific growth rate, Diets 2-5 = 0.7, 1.4, 2.8, 5.6 gkg−1 added hydroxyproline, mean ± SD) | TGC ([1]; thermal growth coefficient, Diets 2-5 = 0.7, 1.4, 2.8, 5.6 gkg−1 added hydroxyproline, mean ± SD) | Damage on dorsal fin [2] | Loss of shells [2] | Wounds on skin [2] | retention of Hydroxyproline in the fish ([3]; higher dietary levels (>4.5 g per kg diet)) | retention of Hydroxyproline in the fish ([3]; low dietary levels (0.8 g per kg diet)) [%] | dietary level above which the negative effects are eliminated ([4]; from retention, plasma and tissue data) | blood plasma levels of Hydroxyproline ([4]; dietary level 0.8 g per kg) | blood plasma levels of Hydroxyproline ([4]; dietary levels >4 g per kg)
1 | Nc1nc2c(Cc3cccnc3)c[nH]c2c(=O)[nH]1 [BCX-34] | 14 |  |  |  |  |  |  |  |  |  |  |  |  |  |  |  | 
2 | O=C(O)[C@@H]1C[C@@H](O)CN1 [Hydroxyproline, L-4-Hydroksyproline] |  | 2.5-3 g per kg diet | growth promoting effect | growth promoting effect | 14.0 | 155 | 2.9 | growth promoting effect | growth promoting effect | lesser degree of damage to the dorsal fin | lower levels of fish scale loss | lesser degree of wounding | 20-30% | ~100 | 3-4 g per kg diet | much lower than previously known (normal values); also recorded: much lower than earlier published (normal values) | very high plasma levels
